Source: patent publication US10172868B2, “Substituted quinazolines for inhibiting kinase activity” (NeuPharma, Inc., priority 2013, dated 2019)

What was measured:
EGFR (ErbB1) = EGFR (ErbB1) (Homo sapiens (Human), UniProt P00533); experiment: Z'-LYTE kinase inhibition assay, EGFR; format: biochemical; settings: for inhibition at 0.041 µM: read-out: % inhibition against EGFR (Compound at 0.041 μM)
Experimental: Inhibitory activities of compounds against BTK, EGFR and EGFR mutants (EGFR L858R, EGFR T790M, EGFR L858R/T790M), FGFR1, FGFR2, JAK2, JAK3 and KDR were measured by Invitrogen using Z'-LYTE® Method as briefly described in the following. Test Compounds are screened in 1% DMSO (final) in the well. For 10 point titrations, 3-fold serial dilutions are conducted from the starting concentration. All ATP Solutions are diluted to a 4× working concentration in Kinase Buffer (50 mM HEPES pH 7.5, 0.01% BRIJ-35, 10 mM MgCl2, 1 mM EGTA). Peptide/Kinase Mixtures are diluted to a 2× working concentration in the appropriate Kinase Buffers as described below. (i) Peptide/Kinase Mixtures for Measurement of EGFR (ErbB1): The 2×EGFR (ErbB1)/[…] mixture is prepared in 50 mM HEPES pH 7.5, 0.01% BRIJ-35, 10 mM MgCl2. 4 mM MnCl2, 1 mM EGTA, 2 mM DTT. The final 10 μL Kinase Reaction consists of 1.1-5.25 ng EGFR (ErbB1) and 2 μM […] in 50 mM HEPES pH 7.5, 0.01% BRIJ-35, 10 mM MgCl2, 2 mM MnCl2. 1 mM EGTA, 1 mM DTT. After the 1 hour Kinase Reaction incubation, 5 μL of a 1:64 dilution of Development Reagent B is added. Reaction starts by 30-second shaking of mixture consisting of 2.5 μL 4× test compound, […] 2× kinase reaction mixture and 2.5 μL 4×ATP Solution on Bar-coded Corning, low volume NBS, black 384-well plate (Corning Cat. #3676). Then the mixture is incubated for 60-minute at room temperature for the kinase reaction, followed by addition of 5 μL of a 1:1024 dilution of development reagent A and 30-second plate shake. The mixture is then incubated for another 60-minute at room temperature for development reaction. Finally fluorescence is read by plate reader. To determine IC50 of a compound against EGFR, EGFR mutant and other kinases, a series of concentrations of the compound were tested for the inhibition.

A431 cells = experiment: cells; settings: Homo sapiens, A-431, 72 h, read-out: IC50 in A431 cells
Experimental: Taxol (as a positive control. Sigma) and compounds were dissolved in DMSO (Sigma), and the final concentration of DMSO in the medium was 1%. Tumor cells were plated in 96-well plates at densities of about 4000 cells/well of a 96-well plate and allowed to adhere/grow for 24 h. They were then treated with various concentrations of drug for 72 h, 3-(4,5-Dimethylthiazol-2-yl)-2,5-diphenyltetrazolium bromide (MTT, Sigma) was used to determine the number of viable cells at the time of compound addition and the number of cells remaining after 72 h compound exposure. The number of cells remaining after 72 h was compared to the number of viable cells at the time of compound addition by measuring the absorbance at 570 nm, allowing for the calculation of growth inhibition.
All concentrations of compounds were tested in triplicate and controls were averaged over 4 wells. IC50 was calculated by plotting the concentration of compound vs the percentage of inhibition in treated wells using GraphPad Prism 5.
The scale utilized in Tables 5 is as follows: +++ less than 100 nM; ++ between 100 nM and 500 nM; and + greater than 500 nM.

H1975 cells = experiment: Inhibition of cancer cell growth, MTT assay, H1975; settings: Homo sapiens, NCI-H1975, 72 h, read-out: IC50 in H1975 cells
EGFR (ErbB1) T790M L858R = EGFR (ErbB1) T790M L858R (Homo sapiens (Human), UniProt P00533, L858R/T790M); experiment: Z'-LYTE kinase inhibition assay, EGFR L858R/T790M; format: biochemical; settings: for inhibition at 0.0137 µM: read-out: % inhibition against EGFR L858R/T790M (Compound at 0.0137 μM); for IC50: read-out: IC50 against EGFR L858R/T790M
Experimental: Inhibitory activities of compounds against BTK, EGFR and EGFR mutants (EGFR L858R, EGFR T790M, EGFR L858R/T790M), FGFR1, FGFR2, JAK2, JAK3 and KDR were measured by Invitrogen using Z'-LYTE® Method as briefly described in the following. Test Compounds are screened in 1% DMSO (final) in the well. For 10 point titrations, 3-fold serial dilutions are conducted from the starting concentration. All ATP Solutions are diluted to a 4× working concentration in Kinase Buffer (50 mM HEPES pH 7.5, 0.01% BRIJ-35, 10 mM MgCl2, 1 mM EGTA). Peptide/Kinase Mixtures are diluted to a 2× working concentration in the appropriate Kinase Buffers as described below. (iv) Peptide/Kinase Mixtures for Measurement of EGFR (ErbB1) T790M L858R: The 2×EGFR (ErbB1) […] mixture is prepared in 50 mM HEPES pH 6.5, 0.01% BRIJ-35, 10 mM MgCl2, 1 mM EGTA, 0.02% NaN3. […] After the 1 hour Kinase Reaction incubation, 5 μL of a 1:64 dilution of Development Reagent B is added. Reaction starts by 30-second shaking of mixture consisting of 2.5 μL 4× test compound, […] 2× kinase reaction mixture and 2.5 μL 4×ATP Solution on Bar-coded Corning, low volume NBS, black 384-well plate (Corning Cat. #3676). Then the mixture is incubated for 60-minute at room temperature for the kinase reaction, followed by addition of 5 μL of a 1:1024 dilution of development reagent A and 30-second plate shake. The mixture is then incubated for another 60-minute at room temperature for development reaction. Finally fluorescence is read by plate reader. To determine IC50 of a compound against EGFR, EGFR mutant and other kinases, a series of concentrations of the compound were tested for the inhibition.

EGFR (ErbB1), sequence (P00533 25-1210): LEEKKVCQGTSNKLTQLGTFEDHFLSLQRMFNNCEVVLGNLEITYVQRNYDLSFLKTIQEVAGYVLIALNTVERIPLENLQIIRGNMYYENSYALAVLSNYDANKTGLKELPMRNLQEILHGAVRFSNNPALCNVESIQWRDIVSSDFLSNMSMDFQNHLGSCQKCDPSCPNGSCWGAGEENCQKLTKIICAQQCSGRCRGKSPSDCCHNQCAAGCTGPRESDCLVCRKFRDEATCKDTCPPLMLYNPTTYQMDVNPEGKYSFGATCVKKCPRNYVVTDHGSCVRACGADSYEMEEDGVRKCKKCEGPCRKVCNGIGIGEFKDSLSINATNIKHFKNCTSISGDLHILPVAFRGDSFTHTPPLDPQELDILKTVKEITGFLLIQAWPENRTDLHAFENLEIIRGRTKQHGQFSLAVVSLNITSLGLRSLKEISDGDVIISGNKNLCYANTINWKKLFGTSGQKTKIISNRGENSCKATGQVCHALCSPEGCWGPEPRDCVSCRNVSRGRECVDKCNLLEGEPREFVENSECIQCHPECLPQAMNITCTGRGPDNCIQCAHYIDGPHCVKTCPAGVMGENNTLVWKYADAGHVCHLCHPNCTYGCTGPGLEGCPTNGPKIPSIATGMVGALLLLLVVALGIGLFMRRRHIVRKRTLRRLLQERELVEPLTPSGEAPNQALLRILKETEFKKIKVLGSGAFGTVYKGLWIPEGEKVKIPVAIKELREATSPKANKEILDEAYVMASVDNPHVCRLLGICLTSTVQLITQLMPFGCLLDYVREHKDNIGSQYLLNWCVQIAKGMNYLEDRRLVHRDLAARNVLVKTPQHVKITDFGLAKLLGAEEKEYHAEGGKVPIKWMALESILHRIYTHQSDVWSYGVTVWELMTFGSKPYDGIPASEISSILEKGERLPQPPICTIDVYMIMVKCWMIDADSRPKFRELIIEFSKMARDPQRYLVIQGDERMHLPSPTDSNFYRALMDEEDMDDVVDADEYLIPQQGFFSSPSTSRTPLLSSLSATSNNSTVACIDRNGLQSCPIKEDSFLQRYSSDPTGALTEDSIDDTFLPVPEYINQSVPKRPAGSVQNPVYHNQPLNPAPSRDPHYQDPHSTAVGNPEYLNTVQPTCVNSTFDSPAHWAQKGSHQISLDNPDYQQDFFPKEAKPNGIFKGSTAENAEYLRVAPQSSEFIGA
EGFR (ErbB1) T790M L858R, sequence (P00533 25-1210 T790M/L858R): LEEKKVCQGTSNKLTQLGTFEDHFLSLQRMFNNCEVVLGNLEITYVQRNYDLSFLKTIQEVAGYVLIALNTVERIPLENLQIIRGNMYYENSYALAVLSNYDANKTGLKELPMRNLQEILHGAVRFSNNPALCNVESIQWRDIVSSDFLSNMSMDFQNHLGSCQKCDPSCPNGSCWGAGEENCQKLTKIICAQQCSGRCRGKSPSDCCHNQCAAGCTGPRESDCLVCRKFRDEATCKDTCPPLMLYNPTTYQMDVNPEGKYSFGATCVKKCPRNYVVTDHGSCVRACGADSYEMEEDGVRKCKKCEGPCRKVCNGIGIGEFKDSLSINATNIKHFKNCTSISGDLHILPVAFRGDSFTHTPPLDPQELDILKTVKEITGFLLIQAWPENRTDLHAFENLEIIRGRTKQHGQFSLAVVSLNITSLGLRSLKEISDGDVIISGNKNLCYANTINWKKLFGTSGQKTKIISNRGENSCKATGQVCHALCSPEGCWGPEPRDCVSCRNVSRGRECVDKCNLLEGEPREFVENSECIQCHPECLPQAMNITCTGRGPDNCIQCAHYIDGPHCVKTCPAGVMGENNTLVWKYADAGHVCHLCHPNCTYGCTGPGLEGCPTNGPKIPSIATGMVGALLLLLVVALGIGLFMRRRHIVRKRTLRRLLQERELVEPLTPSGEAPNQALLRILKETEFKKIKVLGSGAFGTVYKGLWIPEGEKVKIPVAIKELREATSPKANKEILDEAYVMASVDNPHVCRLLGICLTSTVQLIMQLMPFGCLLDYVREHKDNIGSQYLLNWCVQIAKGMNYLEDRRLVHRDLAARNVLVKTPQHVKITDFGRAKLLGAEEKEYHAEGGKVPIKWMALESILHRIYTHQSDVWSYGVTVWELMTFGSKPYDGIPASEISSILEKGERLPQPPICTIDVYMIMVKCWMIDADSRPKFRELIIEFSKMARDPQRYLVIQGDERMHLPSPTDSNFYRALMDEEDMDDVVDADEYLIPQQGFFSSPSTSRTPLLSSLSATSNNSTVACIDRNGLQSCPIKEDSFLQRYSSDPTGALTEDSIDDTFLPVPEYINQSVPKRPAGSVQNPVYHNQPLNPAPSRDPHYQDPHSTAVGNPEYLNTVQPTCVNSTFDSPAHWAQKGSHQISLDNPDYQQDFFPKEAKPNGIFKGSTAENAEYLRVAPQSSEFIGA

| SMILES | inhibition at 0.041 µM (EGFR (ErbB1)) [%] | IC50 (A431 cells) [nM] | IC50 (H1975 cells) [nM] | inhibition at 0.0137 µM (EGFR (ErbB1) T790M L858R) [%] | IC50 (EGFR (ErbB1) T790M L858R) [nM] | IC50 (EGFR (ErbB1); read-out: IC50 against EGFR) [nM] |
| --- | --- | --- | --- | --- | --- | --- |
| C=CC(=O)Nc1cccc(-c2cccc3cnc(Nc4ccc(N5CCN(C)CC5)cc4Cl)nc23)c1 [Example C043, N-(3-(2-((2-chloro-4-(4-methylpiperazin-1-yl)phenyl)amino)quinazolin-8-yl)phenyl)acrylamide] | > 50 | > 500 | 100 to 500 | > 50 | – | – |
| C=CC(=O)Nc1cccc(-c2cccc3cnc(Nc4ccc(N5CCN(C)CC5)cc4)nc23)c1F [Example C045, N-(2-fluoro-3-(2-((4-(4-methylpiperazin-1-yl)phenyl)amino)quinazolin-8-yl)phenyl)acrylamide] | > 50 | 100 to 500 | < 100 | > 50 | < 100 | – |
| C=CC(=O)Nc1cncc(-c2cccc3cnc(Nc4ccc(N5CCN(C)CC5)nc4)nc23)c1 [Example C047, N-(5-(2-((6-(4-methylpiperazin-1-yl)pyridin-3-yl)amino)quinazolin-8-yl)pyridin-3-yl)acrylamide] | > 50 | > 500 | 100 to 500 | > 50 | – | – |
| C=CC(=O)Nc1cccc(-c2cccc3cnc(Nc4ccc(N5CCN(C)CC5)nc4)nc23)c1F [Example C048, N-(2-fluoro-3-(2-((6-(4-methylpiperazin-1-yl)pyridin-3-yl)amino)quinazolin-8-yl)phenyl)acrylamide] | > 50 | > 500 | < 100 | > 50 | < 100 | < 100 |
| C=CC(=O)Nc1cc(-c2cccc3cnc(Nc4ccc(N5CCN(C)CC5)cc4)nc23)n[nH]1 [Example C132, N-(3-(2-((4-(4-methylpiperazin-1-yl)phenyl)amino)quinazolin-8-yl)-1H-pyrazol-5-yl)acrylamide] | < 50 | – | 100 to 500 | < 50 | – | – |
| C=CC(=O)Nc1cccc(-c2cccc3cnc(Nc4ccc(O[C@@H]5CCN(C(C)=O)C5)cc4)nc23)c1 [Example C133, (R)-N-(3-(2-((4-((1-acetylpyrrolidin-3-yl)oxy)phenyl)amino)quinazolin-8-yl)phenyl)acrylamide] | < 50 | – | 100 to 500 | < 50 | – | – |
| C=CC(=O)Nc1cccc(-c2cccc3cnc(Nc4ccc(NCCF)cc4)nc23)c1 [Example C134, N-(3-(2-((4-((2-fluoroethyl)amino)phenyl)amino)quinazolin-8-yl)phenyl)acrylamide] | < 50 | – | < 100 | < 50 | – | – |
| C=CC(=O)Nc1cccc(-c2cccc3cnc(Nc4ccc(NCC(F)F)cc4)nc23)c1 [Example C135, N-(3-(2-((4-((2,2-difluoroethyl)amino)phenyl)amino)quinazolin-8-yl)phenyl)acrylamide] | < 50 | – | < 100 | < 50 | – | – |
| C=CC(=O)Nc1cccc(-c2cccc3cnc(Nc4ccc(N5CCN(CC(C)(C)O)CC5)c(F)c4)nc23)c1 [Example C143, N-(3-(2-((3-fluoro-4-(4-(2-hydroxy-2-methylpropyl)piperazin-1-yl)phenyl)amino)quinazolin-8-yl)phenyl)acrylamide] | < 50 | – | < 100 | > 50 | – | – |
| C=CC(=O)Nc1cccc(-c2cccc3cnc(Nc4ccc(OC5CCN(CCO)CC5)cc4F)nc23)c1 [Example C144, N-(3-(2-((2-fluoro-4-((1-(2-hydroxyethyl)piperidin-4-yl)oxy)phenyl)amino)quinazolin-8-yl)phenyl)acrylamide] | > 50 | – | < 100 | > 50 | – | – |
| C=CC(=O)Nc1cccc(-c2cccc3cnc(Nc4cc(F)c(N5CCN(C)CC5)c(F)c4)nc23)c1 [Example C146, N-(3-(2-((3,5-difluoro-4-(4-methylpiperazin-1-yl)phenyl)amino)quinazolin-8-yl)phenyl)acrylamide] | < 50 | – | < 100 | > 50 | – | – |
| C=CC(=O)Nc1cccc(-c2cccc3cnc(Nc4c(F)cc(N5CCN(C)CC5)cc4F)nc23)c1 [Example C148, N-(3-(2-((2,6-difluoro-4-(4-methylpiperazin-1-yl)phenyl)amino)quinazolin-8-yl)phenyl)acrylamide] | < 50 | – | < 100 | < 50 | – | – |
| C=CC(=O)Nc1cccc(-c2cccc3cnc(Nc4ccc(N5CCN(CC(C)(C)O)CC5)cc4F)nc23)c1 [Example C149, N-(3-(2-((2-fluoro-4-(4-(2-hydroxy-2-methylpropyl)piperazin-1-yl)phenyl)amino)quinazolin-8-yl)phenyl)acrylamide] | < 50 | – | < 100 | < 50 | – | – |
| C=CC(=O)Nc1cccc(-c2cccc3cnc(Nc4ccc(N5CCN(CC(N)=O)CC5)cc4)nc23)c1 [Example C150, N-(3-(2-((4-(4-(2-amino-2-oxoethyl)piperazin-1-yl)phenyl)amino)quinazolin-8-yl)phenyl)acrylamide] | < 50 | – | < 100 | < 50 | – | – |
| C=CC(=O)Nc1cccc(-c2cccc3cnc(Nc4ccc(N5CCN(CCOC)CC5)cc4F)nc23)c1 [Example C153, N-(3-(2-((2-fluoro-4-(4-(2-methoxyethyl)piperazin-1-yl)phenyl)amino)quinazolin-8-yl)phenyl)acrylamide] | < 50 | – | < 100 | < 50 | – | – |
| C=CC(=O)Nc1cccc(-c2cccc3cnc(Nc4ccc(N5CCN(CC(N)=O)CC5)cc4F)nc23)c1 [Example C154, N-(3-(2-((4-(4-(2-amino-2-oxoethyl)piperazin-1-yl)-2-fluorophenyl)amino)quinazolin-8-yl)phenyl)acrylamide] | < 50 | – | 100 to 500 | < 50 | – | – |
| C=CC(=O)Nc1cccc(-c2cccc3cnc(Nc4ccc(N5CCN(CCOC)CC5)c(F)c4)nc23)c1 [Example C155, N-(3-(2-((3-fluoro-4-(4-(2-methoxyethyl)piperazin-1-yl)phenyl)amino)quinazolin-8-yl)phenyl)acrylamide] | < 50 | – | < 100 | > 50 | – | – |
| C=CC(=O)Nc1cccc(-c2cccc3cnc(Nc4ccc(N5CCN(CC(N)=O)CC5)c(F)c4)nc23)c1 [Example C164, N-(3-(2-((4-(4-(2-amino-2-oxoethyl)piperazin-1-yl)-3-fluorophenyl)amino)quinazolin-8-yl)phenyl)acrylamide] | < 50 | – | 100 to 500 | < 50 | – | – |
